The results in this text go back to PubChem BioAssay (NCI).

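The compound was tested at five concentrations on cells cultured in 96-well plates, with a 48-hour exposure period. The concentration for 50% growth inhibition is given as GI50. TGI: total growth inhibition.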 Some results are limits rather than exact numbers.

Some test systems named below: A549 NSCLC; EKVX NSCLC; HT29 colon; NCI-H460 lung; OVCAR-5 ovarian; OVCAR-8 ovarian; SF-295 CNS; SK-MEL-5 melanoma; SN12C renal; UACC-257 melanoma.
What all share (assay): NCI tumour cell line growth inhibition, 48 h

Regarding `Cc1cc(C)nc(NS(=O)(=O)c2ccc(NNc3c4ccccc4nc4c(C(=O)Nc5ccc(S(=O)(=O)Nc6cc(C)on6)cc5)cccc34)cc2)n1`, the TGI in the test on A549 NSCLC is above 100 µM; in the test with EKVX NSCLC, 65.7 µM; with HT29 colon, 49.1 µM; in the test on NCI-H460 lung, above 100 µM; in the test on OVCAR-5 ovarian it was above 100 µM; in the test with OVCAR-8 ovarian it was above 100 µM. For the same compound, the TGI in the test on SF-295 CNS, in the test on SK-MEL-5 melanoma, in the test on SN12C renal and in the test on UACC-257 melanoma was above 100 µM each time.
`O=C1c2ccccc2C2(c3ccc(F)cc3)NCCN12` (configuration not stated): the TGI in the test on A549 NSCLC, with EKVX NSCLC, in the test with HT29 colon, with NCI-H460 lung, in the test with OVCAR-5 ovarian and with OVCAR-8 ovarian was above 100 µM throughout. For the same compound, the TGI in the test on SF-295 CNS, in the test on SK-MEL-5 melanoma, with SN12C renal and in the test with UACC-257 melanoma was above 100 µM each time.
As for `CC(C)(C)OC(=O)C(C#N)C(=O)c1ccc(C(=O)O)[nH]1` (configuration not stated), the TGI with A549 NSCLC, in the test on EKVX NSCLC, in the test with HT29 colon, with NCI-H460 lung, in the test with OVCAR-5 ovarian and with OVCAR-8 ovarian was above 100 µM each time. Further, the TGI in the test with SF-295 CNS, in the test on SK-MEL-5 melanoma, with SN12C renal and with UACC-257 melanoma was above 100 µM in each case.
Turning to `Cc1cc(C)c2c(c1)C/C(=C\c1cccc(C)c1C(=O)O)C2=O`, the TGI in the test on A549 NSCLC, in the test on EKVX NSCLC, in the test on HT29 colon, in the test with NCI-H460 lung, with OVCAR-5 ovarian and in the test with OVCAR-8 ovarian was above 100 µM in each case. Besides, the TGI in the test on SF-295 CNS, in the test on SK-MEL-5 melanoma, in the test on SN12C renal and in the test with UACC-257 melanoma was above 100 µM throughout.
Take `CCOC(=O)c1c(N2CCCC2)[nH]c(=O)c(C(c2ccc(N(C)C)cc2)c2c(O)c(C(=O)OCC)c(N3CCCC3)[nH]c2=O)c1O`: the TGI with A549 NSCLC, in the test on EKVX NSCLC, with HT29 colon, in the test with NCI-H460 lung, with OVCAR-5 ovarian and in the test on OVCAR-8 ovarian was above 100 µM throughout. The TGI with SF-295 CNS, in the test with SK-MEL-5 melanoma, with SN12C renal and in the test on UACC-257 melanoma was above 100 µM throughout.
Regarding `COc1cc(S(=O)(=O)Nc2ccc(-c3csc(N4C(=O)C(Cl)C4c4ccccc4O)n3)cc2)ccc1Cl` (configuration not stated), the TGI in the test with A549 NSCLC, with EKVX NSCLC, with HT29 colon, with NCI-H460 lung, with OVCAR-5 ovarian and in the test on OVCAR-8 ovarian was above 100 µM in each case. The TGI in the test on SF-295 CNS is above 100 µM; in the test with SK-MEL-5 melanoma, above 100 µM; with SN12C renal it was above 100 µM; with UACC-257 melanoma it was 88.6 µM.
In the case of `c1cc2cc3c4c5c(cc6ccc7cc8cc9c%10c8c8c7c6c5c8c5c%10c(c1C9N1CCOCCOCCOCCOCCOCC1)c2c45)C3` (configuration not stated), the TGI with A549 NSCLC, in the test with EKVX NSCLC, in the test with HT29 colon, in the test with NCI-H460 lung, in the test on OVCAR-5 ovarian and in the test with OVCAR-8 ovarian was above 100 µM throughout. For the same compound, the TGI in the test with SF-295 CNS, in the test with SK-MEL-5 melanoma, in the test on SN12C renal and in the test with UACC-257 melanoma was above 100 µM in each case.
Turning to `Clc1ccc(-c2nn3c(COc4cccc(OCc5nnc6sc(-c7ccc(Cl)cc7)nn56)c4)nnc3s2)cc1`, the TGI with A549 NSCLC is 73.2 µM; in the test on EKVX NSCLC, 56.8 µM; with HT29 colon, 60.2 µM; in the test with NCI-H460 lung, above 100 µM; in the test with OVCAR-5 ovarian, 74.4 µM; in the test with OVCAR-8 ovarian, above 100 µM. In addition, the TGI in the test on SF-295 CNS is above 100 µM; with SK-MEL-5 melanoma, 50.7 µM; with SN12C renal, 29.1 µM; in the test on UACC-257 melanoma it was 62.1 µM.
Regarding `Nc1ccc2c(=O)cc(-c3ccc(Br)s3)[nH]c2n1`, the TGI was above 44.8 µM with A549 NSCLC; above 100 µM with EKVX NSCLC; above 44.2 µM with HT29 colon; above 100 µM in the test on NCI-H460 lung; above 100 µM in the test with OVCAR-5 ovarian; above 57.2 µM with OVCAR-8 ovarian. Further, the TGI with SF-295 CNS was above 31.9 µM; in the test on SK-MEL-5 melanoma, 11.3 µM; in the test on SN12C renal it was above 100 µM; in the test with UACC-257 melanoma, above 100 µM.
As for `O=C1C(N2CCN(CCOCCO)CC2)=C(Cl)C(=O)c2ncccc21`, the GI50 in the test with A549 NSCLC and with SF-295 CNS was above 100 µM throughout. The TGI with A549 NSCLC was above 100 µM; in the test on EKVX NSCLC, 35.1 µM; with HT29 colon it was 46 µM; in the test on NCI-H460 lung, above 100 µM; in the test on OVCAR-5 ovarian, 57.1 µM; with OVCAR-8 ovarian, 39.4 µM. For the same compound, the TGI in the test with SF-295 CNS is above 100 µM; with SK-MEL-5 melanoma, 30.6 µM; in the test on SN12C renal it was 35.3 µM; in the test on UACC-257 melanoma, 39.9 µM.
Regarding `COc1c(C)c(C/C=C(\C)CCCC(C)CCCC(C)CCCC(C)C)c(OC)c2ccccc12` (configuration not stated), the TGI in the test with A549 NSCLC, in the test with EKVX NSCLC, in the test with HT29 colon, with NCI-H460 lung, in the test on OVCAR-5 ovarian and in the test on OVCAR-8 ovarian was above 100 µM throughout. Also, the TGI in the test on SF-295 CNS, in the test on SK-MEL-5 melanoma, with SN12C renal and in the test with UACC-257 melanoma was above 100 µM throughout.
Turning to `O=c1[nH]n(CCc2ccccc2CCl)c2ccc([N+](=O)[O-])cc12`, the TGI was above 100 µM in the test on A549 NSCLC; 36.1 µM in the test on EKVX NSCLC; above 100 µM in the test on HT29 colon; above 100 µM in the test on NCI-H460 lung; above 100 µM in the test with OVCAR-5 ovarian; above 100 µM in the test on OVCAR-8 ovarian. Moreover, the TGI in the test on SF-295 CNS, in the test with SK-MEL-5 melanoma, in the test on SN12C renal and in the test on UACC-257 melanoma was above 100 µM each time.
On to `CC(=O)/C=C/c1ccccc1`, for which the TGI is above 100 µM in the test on A549 NSCLC; above 100 µM in the test on EKVX NSCLC; above 100 µM in the test with HT29 colon; above 100 µM in the test on NCI-H460 lung; above 100 µM in the test with OVCAR-5 ovarian; 72.9 µM with OVCAR-8 ovarian. Moreover, the TGI in the test with SF-295 CNS is above 100 µM; in the test with SK-MEL-5 melanoma, 61.2 µM; in the test on SN12C renal, above 100 µM; in the test on UACC-257 melanoma, above 100 µM.
